Data: article PMC5015098, “Purification, characterization, cytotoxicity and anticancer activities of L-asparaginase, anti-colon cancer protein, from the newly isolated alkaliphilic Streptomyces fradiae NEAE-82” (Scientific Reports, 2016)

Tested on: T1, L-asparaginase
T1 construct: gene EC 3.5.1.1
Conditions: 0.05 M Tris-HCl pH 8.6, 37 °C, 30 min (standard assay)

With NC(=O)C[C@H](N)C(=O)O [L-asparagine] the Km was 10.1 mM.
